Like-named read-outs stand apart in the source and are kept apart here.
Experiments:
[1] = system: RdRp of Middle East respiratory syndrome coronavirus (MERS-CoV); conditions: cited from earlier work
[2] = system: human rotavirus A (RVA) Wa strain; type: cell-based; conditions: 20 μM, J2 HIE monolayers, 20 hpi
J2 HIE monolayers [3] = test: Cytotoxicity by LDH assay in J2 HIE monolayers; conditions: for (%) Cytotoxicity: compound 10 μM, n = 1, LDH assay, J2 HIE monolayers infected with GII.4 HuNoV, 24 hpi, normalized to DMSO control
J2 HIE monolayers [4] = type: cell-based; conditions: human, 20 h, 50 μM
Experimental: Supplementary file : FIG S2 Cell viability and cytotoxicity of dasabuvir in J2 HIE monolayers. J2 HIE monolayers were treated with DSB at the indicated concentrations for 20 h. Cell viability or cytotoxicity was measured using CellTiter-Glo luminescent cell viability assay or the Cytotoxicity LDH assay kit-WST, respectively. Results were normalized to DMSO control. Values represent the mean ± SD (n = 7). Download FIG S2, TIF file, 0.8 MB.

SARS-CoV-2 = type: cell-based; conditions: VeroE6/TMPRSS2 cells, 20 h
[5] = healthy volunteers, 1,000 mg twice a day [BID] for 10 days; read-out: maximum plasma concentration (Cmax); cited from earlier work
GII.4 HuNoV = GII.4 HuNoV infection of HIE monolayers, viral genome equivalents by RT-qPCR; type: cell-based, human norovirus; conditions: for activity at 10 µM / EC50: Norovirus; for activity at 10 µM: 24 h, read-out: (%) HuNoV GEs
SARS-CoV-2 (WK-521) = test: SARS-CoV-2 infection of J2 HIE monolayers, viral GEs by RT-qPCR; conditions: 20 μM, 20 hpi
GII.3 HuNoV = test: microbe, parasite or virus in culture; type: cell-based, human norovirus; conditions: Norovirus, read-out: EC50, HuNoV GEs
HCV of genotype 1 = system: HCV of genotype 1; parameters: method as in PMID 25534735; conditions: HCV genotype 1 subgenomic replicon; cited from earlier work
VeroE6/TMPRSS2 cells = conditions: 20 h
[6] = compound 10 μM, n = 1, J2 HIE monolayers, GII.4 HuNoV, 24 hpi, normalized to DMSO control

| Compound | (%) Cytotoxicity (J2 HIE monolayers [3]) [%] | activity at 10 µM (GII.4 HuNoV; [6]) [%] | other results |
| --- | --- | --- | --- |
| COc1c(-c2ccc3cc(NS(C)(=O)=O)ccc3c2)cc(-n2ccc(=O)[nH]c2=O)cc1C(C)(C)C [Dasabuvir] | -4.83 | 1.14 | inhibition of RdRp activity [1]: partially inhibits; fold decrease of RVA infection (viral GEs) [2]: 2.75 fold; increase of LDH release (cytotoxicity) (J2 HIE monolayers [3]; 50 μM, 20 h, uninfected J2 monolayers, compared to DMSO control): 10%; reduction of cellular ATP (cell viability) (J2 HIE monolayers [4]): 17%; effect on SARS-CoV-2 infection (SARS-CoV-2): inhibition; Cmax [5]: ~5.61 µM; EC50 (GII.4 HuNoV; J2 + GII.4, 20 hpi, read-out: EC50, HuNoV GEs): 11.7 µM; EC50 (GII.4 HuNoV; J3 + GII.4, 20 hpi, read-out: EC50, HuNoV GEs): 12.4 µM; EC50 (GII.4 HuNoV; range over GII.4 and GII.3 HuNoV in J2 and J3 HIEs (Fig. 2), read-out: EC50 values, HuNoV infection): 7.55 to 12.4 µM; fold decrease of SARS-CoV-2 infection (viral GEs) (SARS-CoV-2 (WK-521)): 26.9 fold; EC50 (GII.3 HuNoV; J2 + GII.3, 20 hpi): 7.55 µM; EC50 (GII.3 HuNoV; J3 + GII.3, 20 hpi): 9.85 µM; EC50 (HCV of genotype 1): < 0.01 µM; cytotoxicity (VeroE6/TMPRSS2 cells): no cytotoxicity |
| COc1cc(O)c(CC=C(C)C)c(O)c1C(=O)/C=C/c1ccc(O)cc1 [Xanthohumol] | 2.40 | 67.3 |  |
| O=C(Nc1ncc([N+](=O)[O-])s1)c1ccccc1O [Tizoxanide] | 2.28 | 40 |  |
| Cc1cc(C#N)cc(C)c1Oc1nc(Nc2ccc(C#N)cc2)nc(N)c1Br [Etravirine] | 24.52 | 28.8 |  |
| Cc1cc(C)c(Nc2ccnc(Nc3ccc(C#N)cc3)n2)c(C)c1 [Dapivirine] | 0.74 | 24.8 |  |
| Vitamin E | -0.33 |  | (%) HuNoV GEs (GII.4 HuNoV; [6]): 125.47% |
| C[C@@H]1O[C@@H](O[C@H]2[C@H](Oc3cc(O)c4c(c3)O[C@H](c3ccc(O)cc3)CC4=O)O[C@H](CO)[C@@H](O)[C@@H]2O)[C@H](O)[C@H](O)[C@H]1O [Naringin] | 5.67 | 101 |  |
| CC(C)OC(=O)C1=CN(C(=O)c2ccc(F)c(F)c2)CC(C)(C)c2c1[nH]c1ccccc21 [Turofexorate Isopropyl] | 0.86 | 31.9 |  |
